Results published in patent US5171271A, “Polypeptides with fibronectin activity” (Regents of the University of Minnesota, priority 1991, dated 1992).
Where two headings read alike, the source gives them in different places.

What was measured:
[1] = system: Bovine aortic endothelial cells; assay: Aortic endothelial cell adhesion assay; type: cell-based; details: coating concentration 5 μg/ml, 90 minutes
Experimental: Bovine aortic encothelial cells were isolated according to the following protocol. Aortas were obtained from a local slaughterhouse, washed in cold phosphate buffered saline (PBS) (136 mM NaCI, 2.6 mM KCl, 15.2 mM Na2 HPO4, pH 7.2) and processed within 2 hours. Crude collagenase (CLS III, 125-145 units per mg dry weight, Cooper Biomedical) was used at 2 mg/ml in Dulbecco's modified Eagle's medium (DMEM) (GIBCO). The vessel was clamped at the distal end, filled with the collagenase-PBS solution and digestion was carried out for 10 minutes. The lumenal contents were harvested, followed by the addition of fresh collagenase for two additional 10-minute periods. The enzyme-cell suspensions were added to an equal volume of DMEM containing 10% fetal bovine serum (FBS) to inhibit the enzyme and spun in a centrifuge at 400×g for 10 minutes. The resulting cell pellet was resuspended in DMEM containing 10% FBS, 100 units/ml of penicillin G, 100 μg/ml of streptomycin and 100 μg/ml of crude fibroblast growth factor. Cells are cultured in 75 cm^2 flasks in a humidified 5% CO2 atmosphere at 37° C. Cultures were fed twice a week with the same medium and cells were used in assays when approximately 75% confluent. […]
Adhesion was measured using 96 well microtiter plates adsorbed with fibronectin or peptides I and II. […] The solubilized cells were then quantitated using a liquid scintillation counter. […]

[2] = Heparin-binding assay on nitrocellulose sheets
Experimental: The assay for heparin binding utilizes nitrocellulose sheets as substrata to bind peptides or proteins to be tested for heparin binding activity. Peptides I and II or intact fibronectin (fn) were solubilized in 50 mM (NH4)2 CO3 and diIuted to the concentrations indicated in FIGS. 2 and 3. Nitrocellulose sheets which had been presoaked in 50 mM NH4 CO3 were placed in a 96 well dot blot apparatus (Bethesda Research Laboratories Bethesda, Md.), and 250 μl of various concentrations of each peptide were aspirated through the wells. Each well was then washed three times with binding buffer (10 mM Tris-HCl, pH 8.0, 0.15 M NaCl), and the filters were removed and allowed to air dry overnight. The filters were then equilibriated for 5 minutes at room temperature in binding buffer which contained 10 mM CaCl2. ^3 H-heparin was then diluted to a concentration of 50,000 cpm/ml in binding buffer (with Ca^++), and nitrocellulose sheets were incubated in the presence of this mixture for 2 hours. The filters were then washed four times with binding buffer, and air dried. The individual spots of samples were cut out of the nitrocellulose and bound heparin was quantitated with a liquid scintillation counter.

[3] = system: K1735M4 metastatic melanoma cells; details: for Tumor Cell Adhesion, Adherent Cells: melanoma cells, one hour
Experimental: The cells were cultured in Dulbecco's Modified Eagle's Medium containing 5% heat inactivated fetal calf serum. The cultures were grown in 37° C. incubators with a humidified atmosphere containing 5% CO2. Cells were subcultured twice weekly by releasing cells gently from the flask, using 0.05% trypsin and 1 mM EDTA.
The melanoma cells were pulsed in the same fashion as the endothelial cells described hereinabove, except that 2 μCi/ml ^3 HTd(tritiated thymidine) was added to each culture instead of amino acids. The labeled cells were harvested as described for the endothelial cells. The cell adhesion assay was identical to that described hereinabove for the bovine aortic endothelial cell assay.

[4] = Solid phase heparin-binding assay on Immulon C plates
Experimental: Both peptides IIa and CS I were then compared for relative heparin-binding activity. Plastic Immulon C plates (Dynatech, Alexandria, Va.) were adsorbed with 100 μl in triplicate) of the indicated levels of peptides IIa, CS I or BSA as described. The ability of the 33 kD fragment to bind heparin was also determined, for comparison, although due to the relative size of this fragment compared with the peptides, different coating concentrations were used. The actual coating levels of the 33 kD fragment were 4, 20, 100 and 500 μg/ml. Following the blocking of nonspecific binding sites with BSA, the ability of these various substrata to bind ^3 H-heparin was determined by the addition of approximately 4,000 disintegrations per minute (dpm) of this ligand. All conditions of the assay were as described in U.S. patent application Ser. No. 89,073, the disclosure of which is incorporated by reference herein.
The three peptides derived from peptide Ila and intact peptide IIa, were adsorbed to Immulon C plates at the indicated concentrations (100 μl/ well) in triplicate and tested for the ability to bind ^3 H-heparin as described hereinabove. The results of this study are summarized on FIG. 5. […] Rather, a specific primary structure is crucial for this activity. […]

[5] = system: CNS neurons from spinal cords of 6-day chick embryos; assay: Neurite outgrowth assay, CNS neurons; type: cell-based
Experimental: Peptides I, II, IIa, III, CSI or intact fibronectin were diluted in Voller's buffer (0.05M Carbonate buffer, pH 9.6) and 100 μl of each concentration was dipensed into 96 well tissue culture plates in triplicate. The plates were then placed in a sterile hood overnight to evaporate the buffer and to dry the peptides onto the plate. The following morning, 200 μl of phosphate-buffered saline (PBS) containing 5 mg/ml bovine serum albumin (PBS/BSA) were added to each well and the plates were incubated for an additional 3 hours. At that point, the PBS/BSA was aspirated and cells in the appropriate media were added to each well.
Embryonic CNS nerve cell cultures were prepared by the method of Rogers et al., Devel. Biol., 98, 212-220 (1983). Briefly, spinal cords from 6-day chick embryos were isolated and their dorsal halves removed and placed Ca^++ -Mg^++ free (CMF) Hank's balanced salt solution for 10 minutes at 37° C. Only the ventral portions, containing predominantly motor neurons, were prepazed for culture. The cords were then dissociated in 0.25% trypsin (Bactotrypsin, Difco) in CMF Hanks for 25 minutes at 37° C. […] The number of neurons with neurites was quantitated by randomly sampling 10 fields with the aid of a dissecting microscope. […]

Row | Substance | Adherent Cells [1] | 3H-heparin binding (in words) [2] | Concentration at which maximum 3H-heparin binding was observed [2] | Tumor Cell Adhesion, Adherent Cells ([3]; coating concentration 1 μg/ml) [Counts Per Minute] | Tumor Cell Adhesion, Adherent Cells ([3]; coating concentration 10 μg/ml) [Counts Per Minute] | Tumor Cell Adhesion, Adherent Cells ([3]; coating concentration 50 μg/ml) | Tumor Cell Adhesion, Adherent Cells ([3]; coating concentration 100 μg/ml) [Counts Per Minute] | 3H-heparin binding (in words) [4] | Promotion of melanoma cell adhesion (in words) [3] | Melanoma Cell Adhesion, Percent Adhesion ([3]; concentration 80 μg/ml) [%] | Melanoma Cell Adhesion, Percent Adhesion ([3]; concentration 400 μg/ml) [%] | Promotion of neurite extension by CNS neurons (in words) [5]
1 | Fibronectin | 13,714 Counts Per Minute | bound ^3 H-heparin in a concentration dependent manner | 10^-6 M | 4700 | 7900 | 11,000 Counts Per Minute | 9700 | – | – | – | – | –
2 | asp-glu-leu-pro-gln-leu-val-thr-leu-pro-his-pro-asn-leu-his-gly-pro-glu-ile-leu-asp-val-pro-ser-thr [Peptide CS I, reference compound] | – | – | – | – | – | – | – | failed to bind to heparin at any concentration that was tested | promoted the adhesion of melanoma cells in culture | 71.7 | 71.0 | CNS neurons appeared to be preferably stimulated by peptide CS I
